From PubChem BioAssay AID330 (DTP/NCI, 2004)
Where “and” joins values, the source holds several entries; their conditions need not be identical. Equal entries are not always repeated. Toxic doses and inconclusive results are not listed.

Test system: P388 leukemia ip, CD2F1 mice, survival T/C
Experiment: NCI In Vivo Anticancer Drug Screen. Data for tumor model P388 Leukemia (intraperitoneal) in CD2F1 (CDF1) mice
Conditions: endpoint: median survival time, higher = longer survival
Method in brief: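 Mice carrying the transplanted tumor received test compound or vehicle. Survival was recorded in each group, and the value is the treated-group measurement divided by that of the vehicle-treated control group.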

[1] = dose: 100.0 mg/kg/injection, schedule: Q04DX003 (ip), vehicle: saline with Tween-80
[2] = dose: 200.0 mg/kg/injection, schedule: Q04DX003 (ip), vehicle: saline with Tween-80
[3] = dose: 50.0 mg/kg/injection, schedule: Q01DX009 (ip), vehicle: Klucel (hydroxypropylcellulose) (HPC)
[4] = dose: 100.0 mg/kg/injection, schedule: Q01DX009 (ip), vehicle: Klucel (hydroxypropylcellulose) (HPC)
[5] = dose: 200.0 mg/kg/injection, schedule: Q01DX009 (ip), vehicle: Klucel (hydroxypropylcellulose) (HPC)
[6] = dose: 25.0 mg/kg/injection, schedule: Q01DX005 (ip), vehicle: Klucel (hydroxypropylcellulose) (HPC)
[7] = dose: 50.0 mg/kg/injection, schedule: Q01DX005 (ip), vehicle: Klucel (hydroxypropylcellulose) (HPC)
[8] = dose: 50.0 mg/kg/injection, schedule: Q01DX009 (ip), vehicle: saline
[9] = dose: 100.0 mg/kg/injection, schedule: Q01DX009 (ip), vehicle: saline
[10] = dose: 60.0 mg/kg/injection, schedule: Q01DX005 (ip), vehicle: saline
[11] = dose: 120.0 mg/kg/injection, schedule: Q01DX005 (ip), vehicle: saline
[12] = dose: 240.0 mg/kg/injection, schedule: Q01DX005 (ip), vehicle: saline
[13] = dose: 50.0 mg/kg/injection, schedule: Q01DX005 (ip), vehicle: saline with Tween-80
[14] = dose: 100.0 mg/kg/injection, schedule: Q01DX005 (ip), vehicle: saline with Tween-80
[15] = dose: 200.0 mg/kg/injection, schedule: Q01DX005 (ip), vehicle: saline with Tween-80
[16] = dose: 60.0 mg/kg/injection, schedule: Q01DX005 (ip), vehicle: saline with Tween-80
[17] = dose: 120.0 mg/kg/injection, schedule: Q01DX005 (ip), vehicle: saline with Tween-80
[18] = dose: 100.0 mg/kg/injection, schedule: Q01DX001 (ip), vehicle: Klucel (hydroxypropylcellulose) (HPC)
[19] = dose: 200.0 mg/kg/injection, schedule: Q01DX001 (ip), vehicle: Klucel (hydroxypropylcellulose) (HPC)
[20] = dose: 400.0 mg/kg/injection, schedule: Q01DX001 (ip), vehicle: Klucel (hydroxypropylcellulose) (HPC)

CCCOC(=O)/C=C(\F)C(=O)OCCC
T/C (dose: 6.25 mg/kg/injection, schedule: Q04DX002 (ip), vehicle: saline with Tween-80): 110 % of control
T/C (dose: 12.5 mg/kg/injection, schedule: Q04DX002 (ip), vehicle: saline with Tween-80): 116 % of control
T/C (dose: 25.0 mg/kg/injection, schedule: Q04DX002 (ip), vehicle: saline with Tween-80): 95 % of control

CCOC(=O)C[N+]12CCC34c5ccccc5N5C(=O)CC6OCC=C(C1)C(CC32)C6C54 (centres undefined)
T/C (dose: 12.5 mg/kg/injection, schedule: Q01DX009 (ip), vehicle: saline with Tween-80): 113 % of control
T/C (dose: 25.0 mg/kg/injection, schedule: Q01DX009 (ip), vehicle: saline with Tween-80): 106 % of control

N#Cc1ncc(C[n+]2ccccc2)nc1N
T/C (dose: 10.0 mg/kg/injection, schedule: Q01DX009 (ip), vehicle: saline): 109 % of control
T/C (dose: 20.0 mg/kg/injection, schedule: Q01DX009 (ip), vehicle: saline): 107 % of control
T/C (dose: 40.0 mg/kg/injection, schedule: Q01DX009 (ip), vehicle: saline): 100 % of control

BrCCN(CCBr)c1ccc2c3c(cccc13)-c1ccccc1-2
T/C (dose: 4.0 mg/kg/injection, schedule: Q01DX009 (ip), vehicle: saline with Tween-80): 160 % of control and 163 % of control
T/C (dose: 6.0 mg/kg/injection, schedule: Q01DX009 (ip), vehicle: saline with Tween-80): 178 % of control
T/C (dose: 6.25 mg/kg/injection, schedule: Q01DX009 (ip), vehicle: saline with Tween-80): 154 % of control
T/C (dose: 9.0 mg/kg/injection, schedule: Q01DX009 (ip), vehicle: saline with Tween-80): 117 % of control
T/C [1]: 104 % of control
T/C [2]: 104 % of control

CN(C)P(c1ccccc1)N(C)C
T/C [3]: 106 % of control
T/C [4]: 102 % of control
T/C [5]: 107 % of control

CC(C)=CCc1c(C)cc2cc3c(c(O)c2c1O)C(O)=CC(=O)C3(CC=C(C)C)C/C=C(\C)CO (centres undefined)
T/C [6]: 103 % of control
T/C [7]: 93 % of control
T/C (dose: 100.0 mg/kg/injection, schedule: Q01DX005 (ip), vehicle: Klucel (hydroxypropylcellulose) (HPC)): 97 % of control

CC(=NC(C)(C)C)N1CCCCC1
T/C (dose: 25.0 mg/kg/injection, schedule: Q01DX009 (ip), vehicle: saline): 106 % of control
T/C [8]: 100 % of control and 90 % of control
T/C [9]: 105 % of control

CC(C)=CCCC(=O)C(c1nc2nnc(N)n2[nH]c1=O)c1nc2nnc(N)n2[nH]c1=O
T/C [10]: 104 % of control
T/C [11]: 104 % of control
T/C [12]: 95 % of control

CCOC(=O)CCC1(C(=O)OC)C(=O)CCCCCCCC1C(=O)OC (centres undefined)
T/C [13]: 101 % of control
T/C [14]: 98 % of control
T/C [15]: 94 % of control

CCC1(O)CC2CCc3[nH]c4ccccc4c3CCN(C2)C1 (centres undefined)
T/C (dose: 5.25 mg/kg/injection, schedule: Q01DX005 (ip), vehicle: Klucel (hydroxypropylcellulose) (HPC)): 100 % of control
T/C (dose: 10.5 mg/kg/injection, schedule: Q01DX005 (ip), vehicle: Klucel (hydroxypropylcellulose) (HPC)): 100 % of control
T/C (dose: 21.0 mg/kg/injection, schedule: Q01DX005 (ip), vehicle: Klucel (hydroxypropylcellulose) (HPC)): 98 % of control
T/C (dose: 42.0 mg/kg/injection, schedule: Q01DX005 (ip), vehicle: Klucel (hydroxypropylcellulose) (HPC)): 95 % of control

COc1ccc2c(c1)CCC1=C2CCS1(=O)=O
T/C [13]: 99 % of control
T/C [14]: 97 % of control
T/C [15]: 103 % of control

C=C1CCOC2(C(O)C(C)(O)CO)NC(=O)C1(O)NC2=O (centres undefined)
T/C [8]: 108 % of control
T/C [9]: 118 % of control
T/C (dose: 200.0 mg/kg/injection, schedule: Q01DX009 (ip), vehicle: saline): 103 % of control
T/C (dose: 400.0 mg/kg/injection, schedule: Q01DX009 (ip), vehicle: saline): 108 % of control

O=C1CSC(=S)N1c1ccc(Cl)cc1
T/C (dose: 25.0 mg/kg/injection, schedule: Q01DX009 (ip), vehicle: Klucel (hydroxypropylcellulose) (HPC)): 96 % of control
T/C [3]: 96 % of control
T/C [4]: 113 % of control

CC(=O)Nc1nnc(SSc2nnc(NC(C)=O)s2)s1
T/C [3]: 90 % of control
T/C [4]: 102 % of control
T/C [5]: 94 % of control

NC(/N=C/c1cc(Cl)cc(Cl)c1O)=N\S(=O)(=O)c1ccc(N=Cc2cc(Cl)cc(Cl)c2O)cc1
T/C (dose: 50.0 mg/kg/injection, schedule: Q01DX009 (ip), vehicle: saline with Tween-80): 98 % of control
T/C (dose: 100.0 mg/kg/injection, schedule: Q01DX009 (ip), vehicle: saline with Tween-80): 91 % of control
T/C (dose: 200.0 mg/kg/injection, schedule: Q01DX009 (ip), vehicle: saline with Tween-80): 98 % of control

Cc1cccc(NC(=O)C(=O)CC(=O)c2ccc([N+](=O)[O-])cc2)c1C
T/C [13]: 105 % of control
T/C [14]: 108 % of control
T/C [15]: 106 % of control

CC(=O)/C(=C\c1ccco1)C(=O)CCN(C)C
T/C [10]: 108 % of control and 109 % of control and 115 % of control
T/C [11]: 106 % of control and 118 % of control and 120 % of control
T/C [12]: 108 % of control and 115 % of control
T/C (dose: 480.0 mg/kg/injection, schedule: Q01DX005 (ip), vehicle: saline): 101 % of control

Cc1nn(C(=S)S)c(C)c1N=Nc1cccc(F)c1
T/C [13]: 117 % of control
T/C [14]: 111 % of control
T/C [15]: 106 % of control

CC12CC3(Nc4ccccc4C3(C)O)OC1(C)c1ccccc1N2 (centres undefined)
T/C [13]: 95 % of control
T/C [14]: 92 % of control
T/C [15]: 92 % of control

COC1=CCC2=C(CC[C@H]3[C@H]2CCP3(C)=S)C1 (some centres undefined)
T/C (dose: 50.0 mg/kg/injection, schedule: Q01DX005 (ip), vehicle: saline + Tween-80 + alcohol): 115 % of control
T/C (dose: 100.0 mg/kg/injection, schedule: Q01DX005 (ip), vehicle: saline + Tween-80 + alcohol): 106 % of control
T/C (dose: 200.0 mg/kg/injection, schedule: Q01DX005 (ip), vehicle: saline + Tween-80 + alcohol): 101 % of control

COc1ccc(CSCc2c(CSCc3ccc(OC)c(OC)c3)c(CSCc3ccc(OC)c(OC)c3)c(CSCc3ccc(OC)c(OC)c3)c(CSCc3ccc(OC)c(OC)c3)c2CSCc2ccc(OC)c(OC)c2)cc1OC
T/C [1]: 96 % of control
T/C [2]: 90 % of control
T/C (dose: 400.0 mg/kg/injection, schedule: Q04DX003 (ip), vehicle: saline with Tween-80): 102 % of control

COc1ccc2c(N=[N+]=[N-])ccnc2c1
T/C [16]: 89 % of control
T/C [17]: 89 % of control

O=C(O)Cc1cn2ccccc2n1
T/C [18]: 96 % of control
T/C [19]: 100 % of control
T/C [20]: 93 % of control

CCCCc1ccc2nc(C)cc(N/N=C/c3ccc4c(c3)OCO4)c2c1
T/C (dose: 12.5 mg/kg/injection, schedule: Q01DX005 (ip), vehicle: Klucel (hydroxypropylcellulose) (HPC)): 94 % of control
T/C [6]: 100 % of control
T/C [7]: 92 % of control and 94 % of control
T/C (dose: 200.0 mg/kg/injection, schedule: Q01DX005 (ip), vehicle: Klucel (hydroxypropylcellulose) (HPC)): 92 % of control

CCN(CC)CCSc1cc(C)c2ccc(N)nc2n1
T/C (dose: 60.0 mg/kg/injection, schedule: Q01DX005 (ip), vehicle: Klucel (hydroxypropylcellulose) (HPC)): 100 % of control
T/C (dose: 120.0 mg/kg/injection, schedule: Q01DX005 (ip), vehicle: Klucel (hydroxypropylcellulose) (HPC)): 106 % of control

OC1CC2CCCCC2CC1C1CCCCC1 (centres undefined)
T/C [18]: 90 % of control
T/C [19]: 91 % of control
T/C [20]: 94 % of control

CC1(C)NC(=O)N2CCCC(=O)CC21 (centres undefined)
T/C (dose: 100.0 mg/kg/injection, schedule: Q01DX001 (ip), vehicle: saline): 96 % of control
T/C (dose: 200.0 mg/kg/injection, schedule: Q01DX001 (ip), vehicle: saline): 95 % of control
T/C (dose: 400.0 mg/kg/injection, schedule: Q01DX001 (ip), vehicle: saline): 96 % of control

O=C1c2cc(O)c(O)cc2C(=O)c2cc3c(cc21)OCO3
T/C [16]: 97 % of control
T/C [17]: 90 % of control
T/C (dose: 240.0 mg/kg/injection, schedule: Q01DX005 (ip), vehicle: saline with Tween-80): 90 % of control

O=S(=O)(O)c1cc(N=C=S)ccc1/C=C/c1ccc(N=C=S)cc1S(=O)(=O)O
T/C (dose: 25.0 mg/kg/injection, schedule: Q01DX005 (ip), vehicle: saline): 108 % of control and 110 % of control
